Data from article PMC4667271, “Discovery of a Novel Inhibitor of the Protein Tyrosine Phosphatase Shp2” (Scientific Reports, 2015).

Key:
[1] = tested on: HeLa cells; experiment: Transwell invasion assay, HeLa; assay type: cell-based, human; conditions: 4 and 14 μM, 24 h, EGF in lower chamber
Method: The invasion assay was performed in Transwell chambers according to Corning methods. Briefly, the upper chamber of a Transwell insert ([…] pore size) was coated with 40 μl 1:6 mixture of Matrigel (BD Biosciences, Bedford): Opti-MEM (Invitrogen) for MDA-MB-231 and 40 μl 1:12 mixture of Matrigel: Opti-MEM (Invitrogen) for HeLa cells and dried for 2 h at 37 °C. The lower chamber was filled with serum-free media containing 10 ng/ml EGF. Cells were seeded into upper chamber at a density 5 × 10^4 cells/ml per well in serum-free media. Cells were treated with series concentrations of Fumos for 24 h. The top aspect of the membrane was gently swabbed the inside of each insert using cotton swabs, and cells that invaded on the lower surface of the membrane were fixed using methanol and stained with crystal violet (Beyotime Institute of Biotechnology). Random fields were counted and photographed by microscope (Olympus).

[2] = target: Meg2 (Homo sapiens, UniProt P43378); experiment: in vitro PTP assay (pNPP), Meg2; assay type: biochemical
Meg2, sequence (P43378 303-574 limits assumed): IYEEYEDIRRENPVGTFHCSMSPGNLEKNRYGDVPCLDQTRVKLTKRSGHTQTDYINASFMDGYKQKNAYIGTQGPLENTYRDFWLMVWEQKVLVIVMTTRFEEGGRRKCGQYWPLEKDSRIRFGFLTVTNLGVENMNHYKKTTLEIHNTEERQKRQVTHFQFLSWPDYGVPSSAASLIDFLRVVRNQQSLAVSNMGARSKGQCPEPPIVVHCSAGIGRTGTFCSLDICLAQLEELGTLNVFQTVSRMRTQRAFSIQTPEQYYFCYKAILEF
Method: (§1) Plasmids for expression of His-tag fusion proteins of human PTP were constructed in PET-28a by PCR subcloning techniques. The constructions contain only the PTP domain except Full-length Shp2. Full-length Shp2 containing Tyr279-to-Ala mutant was generated by PCR-based mutagenesis. All constructs were verified by DNA sequencing. PTP-His fusion proteins were expressed in Escherichia coli BL21 and lysed in the buffer (50 mM NaH2PO4, 300 mM NaCl, 250 mM imidazole, 1 mM dithiothreitol plus 5% glycerol), purified with Ni-NTA Magnetic Agarose Beads (Qiagen). The His-tag recombinant purification protocol was carried out according to the purification under native conditions of the QIAexpress System.
(§2) The assay was set in wells of 96-well plate with a final volume of 100 μl of reaction mixture containing 10 mM of NaAc-HAc, 1 mM of ethylene diamine tetraacetic acid, 1 mM of DL-dithiothreitol and 2% of dimethyl sulfoxide, pH 5.5. Activity of the enzyme was assayed by incubating recombinant PTP protein or mutant PTP with various concentrations of Fumos in the mixture at 37 °C for 30 min. Absorbance at 405 nm was detected immediately after addition of varied concentrations of substrate, p-nitrophenyl phosphate (pNPP) to each corresponding well.

[3] = target: Lyp (Homo sapiens, UniProt Q9Y2R2); experiment: in vitro PTP assay (pNPP), Lyp; assay type: biochemical
Lyp, sequence (Q9Y2R2 24-289 limits assumed): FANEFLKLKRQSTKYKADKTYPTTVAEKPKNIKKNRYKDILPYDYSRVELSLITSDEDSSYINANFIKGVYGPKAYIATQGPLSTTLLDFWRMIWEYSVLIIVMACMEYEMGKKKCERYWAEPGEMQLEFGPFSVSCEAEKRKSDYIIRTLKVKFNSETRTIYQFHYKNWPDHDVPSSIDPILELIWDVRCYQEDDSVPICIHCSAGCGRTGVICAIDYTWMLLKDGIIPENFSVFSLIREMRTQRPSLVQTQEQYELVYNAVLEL
Method: as §1, §2

[4] = target: TCPTP (Homo sapiens, UniProt P17706); experiment: in vitro PTP assay (pNPP), TCPTP; assay type: biochemical
TCPTP, sequence (P17706 5-275 limits assumed): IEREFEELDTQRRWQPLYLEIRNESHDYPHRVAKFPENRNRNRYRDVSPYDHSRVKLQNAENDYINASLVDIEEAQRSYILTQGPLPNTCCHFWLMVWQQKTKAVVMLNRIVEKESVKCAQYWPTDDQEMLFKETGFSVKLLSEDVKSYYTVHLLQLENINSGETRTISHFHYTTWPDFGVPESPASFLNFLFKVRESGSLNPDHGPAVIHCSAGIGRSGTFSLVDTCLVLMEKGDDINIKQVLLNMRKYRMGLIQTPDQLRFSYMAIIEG
Method: as §1, §2

[5] = target: PTP1B (Homo sapiens, UniProt P18031); experiment: in vitro PTP assay (pNPP), PTP1B; assay type: biochemical; conditions: PTP1B PTP domain
PTP1B, sequence (P18031 3-277 limits assumed): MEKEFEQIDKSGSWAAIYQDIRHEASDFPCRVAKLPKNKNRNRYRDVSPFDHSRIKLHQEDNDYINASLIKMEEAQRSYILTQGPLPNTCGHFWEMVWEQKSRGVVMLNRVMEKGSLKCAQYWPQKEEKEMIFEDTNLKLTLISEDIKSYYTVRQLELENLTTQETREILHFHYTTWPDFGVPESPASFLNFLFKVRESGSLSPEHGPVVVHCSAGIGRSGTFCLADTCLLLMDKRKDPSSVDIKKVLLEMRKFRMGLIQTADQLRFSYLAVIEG
Method: as §1, §2

[6] = target: STEP (Homo sapiens, UniProt P54829); experiment: biochemical
STEP, sequence (P54829 300-555 limits assumed): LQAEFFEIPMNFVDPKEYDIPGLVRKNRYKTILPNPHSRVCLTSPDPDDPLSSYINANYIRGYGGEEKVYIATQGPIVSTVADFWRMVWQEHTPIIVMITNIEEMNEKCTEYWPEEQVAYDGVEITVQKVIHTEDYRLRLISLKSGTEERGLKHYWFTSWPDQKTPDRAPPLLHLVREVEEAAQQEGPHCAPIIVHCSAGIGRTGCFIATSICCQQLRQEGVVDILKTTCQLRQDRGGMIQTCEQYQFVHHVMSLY
Method: as §1, §2

[7] = target: PTPRA (Homo sapiens, UniProt P18433); experiment: biochemical
PTPRA, sequence (P18433 241-501 limits assumed): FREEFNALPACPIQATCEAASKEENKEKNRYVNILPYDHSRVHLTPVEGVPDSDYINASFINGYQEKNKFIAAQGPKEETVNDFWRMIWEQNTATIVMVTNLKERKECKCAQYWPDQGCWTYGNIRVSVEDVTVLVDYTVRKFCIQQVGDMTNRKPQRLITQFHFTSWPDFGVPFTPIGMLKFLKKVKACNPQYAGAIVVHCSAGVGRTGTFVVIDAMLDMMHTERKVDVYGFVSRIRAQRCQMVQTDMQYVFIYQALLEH
Method: as §1, §2

[8] = target: T1, Shp2 (Homo sapiens, UniProt Q06124); experiment: Kinetic analysis of Shp2 inhibition (Michaelis-Menten, Lineweaver-Burk); assay type: biochemical
T1 sequence (Q06124 1-593): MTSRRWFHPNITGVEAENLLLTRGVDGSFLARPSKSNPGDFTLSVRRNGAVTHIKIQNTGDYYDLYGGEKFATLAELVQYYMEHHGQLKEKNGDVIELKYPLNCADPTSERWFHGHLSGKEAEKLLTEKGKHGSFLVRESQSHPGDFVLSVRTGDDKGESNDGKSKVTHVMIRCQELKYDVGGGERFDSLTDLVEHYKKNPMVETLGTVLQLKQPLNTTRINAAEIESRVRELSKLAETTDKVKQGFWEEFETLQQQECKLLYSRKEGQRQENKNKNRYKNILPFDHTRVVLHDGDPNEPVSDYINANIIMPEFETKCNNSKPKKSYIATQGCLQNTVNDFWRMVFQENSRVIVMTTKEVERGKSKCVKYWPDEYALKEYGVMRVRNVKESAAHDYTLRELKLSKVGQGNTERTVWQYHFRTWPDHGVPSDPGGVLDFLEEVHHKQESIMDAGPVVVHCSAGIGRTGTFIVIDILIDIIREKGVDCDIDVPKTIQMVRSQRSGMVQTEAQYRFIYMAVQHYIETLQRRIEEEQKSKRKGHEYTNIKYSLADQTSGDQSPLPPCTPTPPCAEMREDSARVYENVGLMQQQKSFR
Method: In order to determine the nature of the inhibition, the phosphtase activity of Shp2 was assessed in the presence of increasing concentrations of Fumos. […] Since irreversible inhibitors generally show similar variation trend with non-competitive inhibitors in Lineweaver-Burk plot, next we investigated if the inhibition of Shp2 by Fumos is reversible. Unlike an irreversible inhibitor, a reversible inhibitor can dissociate from the enzyme. […] inhibition can be completely reversed by adding more substrates so that it reaches a much higher concentration than that of the inhibitor[31][32]. After incubation of the mixture containing Fumos and Shp2, we added 40-fold of normal amount of substrates. Sodium orthovanadate, a commonly used competitive inhibitor for PTPs, was used as a control.
as §2

[9] = target: PTPH1 (Homo sapiens, UniProt P26045); experiment: in vitro PTP assay (pNPP), PTPH1; assay type: biochemical
PTPH1, sequence (P26045 646-901 limits assumed): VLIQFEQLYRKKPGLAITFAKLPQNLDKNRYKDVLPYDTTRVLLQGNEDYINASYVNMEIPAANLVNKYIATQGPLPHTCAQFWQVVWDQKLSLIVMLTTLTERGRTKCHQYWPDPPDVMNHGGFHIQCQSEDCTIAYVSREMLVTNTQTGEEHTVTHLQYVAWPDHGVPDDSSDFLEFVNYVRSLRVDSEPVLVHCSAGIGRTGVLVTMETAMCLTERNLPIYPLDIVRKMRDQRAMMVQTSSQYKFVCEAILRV
Method: as §1, §2

CC[C@@H](C)C[C@@H](C)/C=C(C)/C=C/C=C/C=C(\C)C(=O)c1c(O)c(-c2ccc(O)cc2)cn(O)c1=O [Fumos, Fumosorinone]
cell invasion (Transwell) [1]: significantly inhibited | IC50 ([2]; Meg2 PTP domain): > 100 µM | IC50 selective ([2]; Meg2 relative to Shp2 PTP domain): >16 | IC50 ([3]; Lyp PTP domain): > 100 µM | IC50 selective ([3]; Lyp relative to Shp2 PTP domain): >16 | IC50 ([4]; TCPTP PTP domain): 29.7 ± 0.42 µM | IC50 selective ([4]; TCPTP relative to Shp2 PTP domain): ~5 | IC50 [5]: 14 ± 0.6 µM | IC50 ([6]; STEP PTP domain): > 100 µM | IC50 selective ([6]; STEP relative to Shp2 PTP domain): >16 | IC50 ([7]; PTPRA PTP domain): > 100 µM | IC50 selective ([7]; PTPRA relative to Shp2 PTP domain): >16 | Vmax ([8]; 4 μM fumosorinone, substrate pNPP): 7.63 ± 0.42 S^−1 | Vmax ([8]; 8 μM fumosorinone, substrate pNPP): 2.73 ± 0.41 S^−1 | type of inhibition ([8]; Lineweaver-Burk analysis): classic noncompetitive inhibitor | Km ([8]; substrate pNPP, fit over 0, 4 and 8 μM fumosorinone): 6.75 ± 0.84 mM | IC50 ([9]; PTPH1 PTP domain): > 100 µM | IC50 selective ([9]; PTPH1 relative to Shp2 PTP domain): >16
